Data reported in PubChem BioAssay AID180 (DTP/NCI, 2004).
Several values for one entry are separate records, joined by “and”; a condition that tells them apart may be missing. Identical values can stand only once.

System: BDF1 mice, Adenocarcinoma 755 s.c., tumor weight T/C
Test: NCI In Vivo Anticancer Drug Screen. Data for tumor model Adenocarcinoma 755 (subcutaneous) in B6D2F1 (BDF1) mice
Settings: endpoint: mean tumor weight, higher = larger tumour
Method in brief: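 Compound activity was tested in mice carrying transplanted tumors. Survival or tumor size was measured, and each value is the treated-group measurement divided by that of the vehicle-treated control group (T/C).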

[1] = dose: 30.0 mg/kg/injection, schedule: Q01DX011 (ip), vehicle: carboxymethylcellulose (CMC)
[2] = dose: 60.0 mg/kg/injection, schedule: Q01DX011 (ip), vehicle: carboxymethylcellulose (CMC)
[3] = dose: 120.0 mg/kg/injection, schedule: Q01DX011 (ip), vehicle: carboxymethylcellulose (CMC)
[4] = dose: 240.0 mg/kg/injection, schedule: Q01DX011 (ip), vehicle: carboxymethylcellulose (CMC)

CCCCCCCCCCCC(=O)N(CC)CC
T/C (dose: 15.6 mg/kg/injection, schedule: Q01DX011 (ip), vehicle: other): 92 % of control | T/C (dose: 31.2 mg/kg/injection, schedule: Q01DX011 (ip), vehicle: other): 82 % of control | T/C (dose: 62.5 mg/kg/injection, schedule: Q01DX011 (ip), vehicle: other): 84 % of control

O=c1[nH]c(=O)c2nc(Br)n(C3OC(CO)C(O)C3O)c2[nH]1 (configuration not stated)
T/C [1]: 119 % of control | T/C [2]: 105 % of control | T/C [3]: 68 % of control | T/C [4]: 86 % of control

O=C(CCBr)NCCNC(=O)CCBr
T/C (dose: 50.0 mg/kg/injection, schedule: Q01DX011 (ip), vehicle: methylcellulose (MC)): 15 % of control | T/C (dose: 100.0 mg/kg/injection, schedule: Q01DX011 (ip), vehicle: methylcellulose (MC)): 3 % of control

CSc1ncnc2c1ncn2CCCl
T/C (dose: 1.5 mg/kg/injection, schedule: Q01DX011 (ip), vehicle: carboxymethylcellulose (CMC)): 92 % of control | T/C (dose: 3.0 mg/kg/injection, schedule: Q01DX011 (ip), vehicle: carboxymethylcellulose (CMC)): 80 % of control | T/C (dose: 6.0 mg/kg/injection, schedule: Q01DX011 (ip), vehicle: carboxymethylcellulose (CMC)): 31 % of control | T/C (dose: 6.2 mg/kg/injection, schedule: Q01DX011 (ip), vehicle: carboxymethylcellulose (CMC)): 34 % of control | T/C (dose: 12.5 mg/kg/injection, schedule: Q01DX011 (ip), vehicle: carboxymethylcellulose (CMC)): 4 % of control

O=c1[nH]cnc2nc(S(=O)(=O)F)[nH]c12
T/C [2]: 117 % of control | T/C [3]: 121 % of control | T/C [4]: 115 % of control

Nc1ncnc2c1nc(Br)n2C1OC(CO)C(O)C1O (configuration not stated)
T/C [1]: 117 % of control | T/C [3]: 109 % of control

CC1CCOS(=O)O1 (configuration not stated)
T/C (dose: 20.0 mg/kg/injection, schedule: Q01DX011 (ip), vehicle: carboxymethylcellulose (CMC)): 76 % of control | T/C (dose: 40.0 mg/kg/injection, schedule: Q01DX011 (ip), vehicle: carboxymethylcellulose (CMC)): 18 % of control

CN1CC(=O)NC1=O
T/C (dose: 250.0 mg/kg/injection, schedule: Q01DX011 (ip), vehicle: saline): 105 % of control | T/C (dose: 500.0 mg/kg/injection, schedule: Q01DX011 (ip), vehicle: saline): 93 % of control | T/C (dose: 1000.0 mg/kg/injection, schedule: Q01DX011 (ip), vehicle: saline): 81 % of control

Cn1cnc(=S)c2[nH]cnc21
T/C (dose: 300.0 mg/kg/injection, schedule: Q01DX011 (ip), vehicle: carboxymethylcellulose (CMC)): 61 % of control

COc1ccc(C2=NC(=O)NC2c2ccc(OC)cc2)cc1 (configuration not stated)
T/C (dose: 10.0 mg/kg/injection, schedule: Q01DX011 (ip), vehicle: saline): 112 % of control | T/C (dose: 50.0 mg/kg/injection, schedule: Q01DX011 (ip), vehicle: saline): 18 % of control

CN(C)c1nc(N(C)C)nc(N(C)C)n1
T/C (dose: 4.75 mg/kg/injection, schedule: Q01DX011 (ip), vehicle: other): 121 % of control | T/C (dose: 9.5 mg/kg/injection, schedule: Q01DX011 (ip), vehicle: other): 67 % of control | T/C (dose: 10.88 mg/kg/injection, schedule: Q01DX011 (ip), vehicle: other): 95 % of control | T/C (dose: 10.9 mg/kg/injection, schedule: Q01DX011 (ip), vehicle: other): 95 % of control | T/C (dose: 11.25 mg/kg/injection, schedule: Q01DX011 (iv), vehicle: other): 108 % of control | T/C (dose: 13.85 mg/kg/injection, schedule: Q01DX011 (ip), vehicle: carboxymethylcellulose (CMC)): 87 % of control | T/C (dose: 13.85 mg/kg/injection, schedule: Q01DX011 (ip), vehicle: other): 104 % of control | T/C (dose: 14.13 mg/kg/injection, schedule: Q01DX011 (ip), vehicle: other): 117 % of control | T/C (dose: 15.6 mg/kg/injection, schedule: Q01DX011 (oral), vehicle: other): 77 % of control | T/C (dose: 15.6 mg/kg/injection, schedule: Q01DX011 (oral), vehicle: saline): 88 % of control | T/C (dose: 19.0 mg/kg/injection, schedule: Q01DX011 (ip), vehicle: other): 53 % of control | T/C (dose: 21.75 mg/kg/injection, schedule: Q01DX011 (ip), vehicle: other): 55 % of control and 73 % of control | T/C (dose: 22.5 mg/kg/injection, schedule: Q01DX011 (iv), vehicle: other): 67 % of control | T/C (dose: 25.0 mg/kg/injection, schedule: Q01DX011 (ip), vehicle: other): 59 % of control | T/C (dose: 27.7 mg/kg/injection, schedule: Q01DX011 (ip), vehicle: carboxymethylcellulose (CMC)): 161 % of control | T/C (dose: 27.7 mg/kg/injection, schedule: Q01DX011 (ip), vehicle: other): 56 % of control | T/C (dose: 30.37 mg/kg/injection, schedule: Q01DX011 (ip), vehicle: carboxymethylcellulose (CMC)): 53 % of control | T/C (dose: 31.25 mg/kg/injection, schedule: Q01DX011 (ip), vehicle: carboxymethylcellulose (CMC)): 118 % of control | T/C (dose: 31.25 mg/kg/injection, schedule: Q01DX011 (ip), vehicle: methylcellulose (MC)): 91 % of control | T/C (dose: 31.25 mg/kg/injection, schedule: Q01DX011 (iv), vehicle: other): 80 % of control and 85 % of control | T/C (dose: 31.3 mg/kg/injection, schedule: Q01DX011 (oral), vehicle: other): 101 % of control | T/C (dose: 31.3 mg/kg/injection, schedule: Q01DX011 (oral), vehicle: saline): 75 % of control | T/C (dose: 34.8 mg/kg/injection, schedule: Q01DX011 (ip), vehicle: carboxymethylcellulose (CMC)): 50 % of control | T/C (dose: 43.5 mg/kg/injection, schedule: Q01DX011 (ip), vehicle: carboxymethylcellulose (CMC)): 47 % of control | T/C (dose: 43.5 mg/kg/injection, schedule: Q01DX011 (ip), vehicle: other): 109 % of control | T/C (dose: 45.0 mg/kg/injection, schedule: Q01DX011 (iv), vehicle: other): 89 % of control | T/C (dose: 55.4 mg/kg/injection, schedule: Q01DX011 (ip), vehicle: carboxymethylcellulose (CMC)): 96 % of control | T/C (dose: 55.4 mg/kg/injection, schedule: Q01DX011 (ip), vehicle: other): 45 % of control | T/C (dose: 56.5 mg/kg/injection, schedule: Q01DX011 (ip), vehicle: other): 54 % of control | T/C (dose: 58.0 mg/kg/injection, schedule: Q01DX011 (ip), vehicle: carboxymethylcellulose (CMC)): 29 % of control | T/C (dose: 60.75 mg/kg/injection, schedule: Q01DX011 (ip), vehicle: carboxymethylcellulose (CMC)): 78 % of control | T/C (dose: 62.5 mg/kg/injection, schedule: Q01DX011 (ip), vehicle: carboxymethylcellulose (CMC)): 88 % of control | T/C (dose: 62.5 mg/kg/injection, schedule: Q01DX011 (ip), vehicle: methylcellulose (MC)): 82 % of control | T/C (dose: 62.5 mg/kg/injection, schedule: Q01DX011 (iv), vehicle: other): 51 % of control and 57 % of control | T/C (dose: 62.5 mg/kg/injection, schedule: Q01DX011 (oral), vehicle: other): 74 % of control | T/C (dose: 62.5 mg/kg/injection, schedule: Q01DX011 (oral), vehicle: saline): 105 % of control | T/C (dose: 87.0 mg/kg/injection, schedule: Q01DX011 (ip), vehicle: carboxymethylcellulose (CMC)): 11 % of control | T/C (dose: 87.0 mg/kg/injection, schedule: Q01DX011 (ip), vehicle: other): 14 % of control | T/C (dose: 121.5 mg/kg/injection, schedule: Q01DX011 (ip), vehicle: carboxymethylcellulose (CMC)): 48 % of control | T/C (dose: 125.0 mg/kg/injection, schedule: Q01DX011 (ip), vehicle: carboxymethylcellulose (CMC)): 43 % of control | T/C (dose: 125.0 mg/kg/injection, schedule: Q01DX011 (ip), vehicle: methylcellulose (MC)): 34 % of control | T/C (dose: 125.0 mg/kg/injection, schedule: Q01DX011 (iv), vehicle: other): 8 % of control | T/C (dose: 125.0 mg/kg/injection, schedule: Q01DX011 (oral), vehicle: other): 54 % of control | T/C (dose: 125.0 mg/kg/injection, schedule: Q01DX011 (oral), vehicle: saline): 106 % of control | T/C (dose: 250.0 mg/kg/injection, schedule: Q01DX011 (ip), vehicle: carboxymethylcellulose (CMC)): 36 % of control | T/C (dose: 250.0 mg/kg/injection, schedule: Q01DX011 (oral), vehicle: saline): 40 % of control

O=C(Nc1ncnc2nc[nH]c12)C(Cl)Cl
T/C (dose: 100.0 mg/kg/injection, schedule: Q01DX011 (ip), vehicle: saline): 77 % of control

CCn1cnc2ncnc(SCc3ccccc3)c21
T/C (dose: 16.0 mg/kg/injection, schedule: Q01DX011 (ip), vehicle: carboxymethylcellulose (CMC)): 107 % of control | T/C (dose: 31.0 mg/kg/injection, schedule: Q01DX011 (ip), vehicle: carboxymethylcellulose (CMC)): 89 % of control | T/C (dose: 62.0 mg/kg/injection, schedule: Q01DX011 (ip), vehicle: carboxymethylcellulose (CMC)): 46 % of control
